Source: patent US9352010B2, “Treatment of HIV-1 infection and AIDS” (The J. David Gladstone Institutes, priority 2011, dated 2016)

Experiments:
human monocytes = conditions: LPS and ATP; cited from earlier work
[1] = system: SupT1 CD4 T leukemic cells; assay: Syncytia formation in NL4-3-infected SupT1 cells; format: cell-based; conditions: 5 μM protease inhibitor, 2.5 days
Method: (A) The spinoculation procedure. (B) Flow cytometry of viable CD4 versus CD8-T-cells in HLAC three days after spinoculation in the presence of the indicated drugs. Data represent live-gated cells, based on the forward-scatter versus side-scatter profile of the complete culture. Of note, apoptotic cells were included in the analysis of caspases activity and cytokine expression (FIG. 10E, F). Drugs concentrations: AZT 5 μM; Efavirenz 100 nM; AMD3100 250 nM; T20 10 μg/ml. The data are representative results of six independent experiments with six different donors. […] (C) Highly permissive SupT1 CD4 T leukemic cells were infected with NL4-3 and cultivated for 3 days to allow substantial infection but not syncytia formation. […] After 2.5 days of additional culture, the extent of syncytia formation in each sample was evaluated by light microscopy. […] Results are representative of three independent experiments.

CFSE-labeled CD4 T-cells = format: cell-based, human; conditions: for indirect killing (loss) of resting CFSE-labeled CD4 T-cells: NL4-3-infected effector cells
Method: (A) Experimental strategy to assess indirect cell killing in HIV-1-infected human lymphoid cultures. Fresh human tonsil tissue from a single donor is processed into HLAC, and then separated into two fractions. One fraction is challenged with HIV-1 and cultured for 6 days, allowing viral spread. On day 5, the uninfected fraction is treated with AZT (5 μM) and labeled with CFSE (1 μM). On day 6, the infected and CFSE-labeled (i.e., uninfected) cultures are mixed and co-cultured in the presence of AZT. […] After 6 days of co-culturing, the number of viable CFSE-positive cells is determined by flow cytometry. (B) Flow cytometry analysis of the mixed HLACs. Indirect killing is determined by gating on live CFSE-positive cells in the mixed cultures. Effector cells are either infected or uninfected cells. […] CFSE-labeled cells mixed with uninfected or infected cells were cultured in the presence of 5 μM AZT alone or together with 250 nM AMD3100. Data represent live CFSE-positive cells 6 days after co-culture with infected or uninfected effector cells. […] The absolute numbers of viable CFSE-positive CD4 and CD8 T-cells and B cells were determined. Percentages are normalized to the number of viable CFSE-positive cells co-cultured with uninfected cells in the presence of AZT, as depicted by (*). Error bars represent standard deviations of three samples from the same donor. […] See also FIG. 3.
(§1) Human tonsil or splenic tissues from routine tonsillectomies were obtained from the National Disease Research Interchange and the Cooperative Human Tissue Network and processed as previously described (Jekle et al., 2003, J Virol 77:5846-5854). In brief, tonsils or spleen were minced, passed through a 40-μm cell strainer, and cultured in 96-well U-bottomed polystyrene plates (2×10^6 cells/well) in medium (200 μl/well) consisting of RPMI 1640 supplemented with 15% heat-inactivated fetal bovine serum, 100 μg/ml gentamicin, 200 μg/ml ampicillin, 1 mM sodium pyruvate, 1% nonessential amino acids (Mediatech), 2 mM L-glutamine, and 1% fungizone (Invitrogen). All HIV-1 infections were carried out with 20-50 ng of HIV-1 p24^gag. Cells were incubated with the virus for 12-16 h, washed extensively, and supplemented with fresh medium. After day 5, infections were monitored by measuring p24gag levels in the culture medium using a FLAQ assay (Hayden et al., 2003, AIDS 17:629-631). Infected and uninfected cultures were manipulated as described for individual experiments. In “indirect killing” assays, unless otherwise stated, drugs were used at the following concentrations: 5 μM AZT; 250 nM AMD3100; 10 μg/ml T20; 100 nM Efavirenz; 1 μM Nevirapine; 30 μM Raltegravir; 60 μM 118-D-24; 5 μM Amprenavir; 5 μM Saquinavir; 5 μM Indinavir. CFSE-labeled cells were activated with PHA (5 μg/ml) and IL-2 (20 ng/ml) 2 days before mixing with effector cells.
Uninfected cells (5×10^6/ml) were labeled with 1 μM CFSE (Molecular Probes C1157), treated with 5 μM AZT for 24 h, and co-cultured with effector cells. CFSE readily diffuses into cells, where intracellular esterases cleave the acetate groups, converting it to a fluorescent, membrane-impermeable dye.

IL-1β = assay: Release of 17-kDa IL-1β from isolated tonsillar CD4 T-cells (ionophore stimulus); format: cell-based, human; conditions: nigericin 10 μM
Method: For stimulating the processing and secretion of IL-1, CD4 T-cells were isolated from HLACs by positive selection and treated with 0.5 μM PMA ([…], Calbiochem Cat. #524400) for 6 hours at 37° C. PMA induces large intracellular stores of the 35 kDa pro-IL-1β. Cells were then washed with PBS and treated with 10 μM nigericin (Sigma, Cat. # N7143) overnight at 37° C. The potassium ionophore nigericin mediates an elecroneutral exchange of intracellular K^+ ions for extracellular protons, providing a second inflammatory stimulus, which results in the maturation and release of the bioactive 17 kDa IL-1β(Perregaux et al., 1992, J Immunol 149:1294-1303; Perregaux and Gabel, 1994, J Biol Chem 269:15195-15203).
Isolated tonsillar CD4 T-cells were treated overnight with nigericin (10 μM) to provide a second inflammatory stimulus, resulting in maturation and release of bioactive 17-kDa IL-1β. Supernatants from the cell cultures were subjected to SDS-PAGE and immunoblotting. 17-kDa IL-1β was released after treatment with nigericin, but not with calcium ionophore A23187 or the nonspecific cation ionophore monensin. Thus, while these cells are primed, they must receive the appropriate proinflammatory signal for pro-IL-1β processing and release. […]

[2] = system: CFSE-labeled spleen CD4 T-cells; assay: Indirect killing assay with CFSE-labeled human spleen cells; format: cell-based; conditions: HIV-infected spleen HLAC effectors
Method: (B and C) Fresh human spleen from a single donor were processed into HLAC and assessed in indirect cell killing assay as described in FIG. 2A. Effector spleen HLAC were stimulated with PHA and IL-2 48 hours before mixing, but not during co-culturing with CFSE-labeled cells. Non-activated resting CFSE-labeled spleen cells were co-cultured with NL4-3-infected or uninfected effector cells in the presence or absence of the following drugs, AZT (5 μM), AMD3100 (250 nM), Efavirenz (100 nM), or Raltegravir (30 μM), as indicated. […] Percentages were normalized to the number of viable CFSE-positive spleen CD4 T-cells co-cultured with uninfected effectors in the presence of AZT, as depicted by (*). Error bars represent standard error of the mean for three experiments performed with three different spleen and tonsil donors.
as §1
Uninfected cells (5×10^6/ml) were labeled with 1 μM CFSE (Molecular Probes C1157), treated with 5 μM AZT for 24 h, and co-cultured with effector cells. CFSE readily diffuses into cells, where intracellular esterases cleave the acetate groups, converting it to a fluorescent, membrane-impermeable dye. […] To quantify indirect killing, mixed (CFSE-labeled+effector) cultures were washed in FACS buffer (PBS supplemented with 2 mM EDTA and 2% fetal bovine serum), stained with PE-conjugated anti-CD4, PerCP-conjugated anti-CD19, and APC-conjugated anti-CD8 (all from BD Pharmingen) and fixed in 1% paraformaldehyde. To determine the absolute numbers of the viable CFSE-labeled cells, a standard number of fluorescent beads (Flow-Count Fluorospheres, Beckman Coulter) was added to each cell-suspension sample before data acquisition. Data were collected on a FACS Calibur (BD Biosciences) and analyzed with Flowjo software (Treestar). The level of indirect killing was defined by sequential gating beginning with forward scatter versus side scatter to select live lymphocytes, subgating on the CFSE-positive population, and calculating the numbers of CD4 or CD8 T or B cells, divided by the number of fluorescent beads acquired.

[3] = system: HIV-1 reverse transcription products; assay: Taqman QPCR of HIV-1 reverse transcription products in infected CD4 T-cells; format: cell-based, human; conditions: 16 hours after infection with NL4-3, versus untreated cells
Method: Fresh HLACs were washed once with PBS and resuspended with PBS containing 5 mM EDTA and 2% fetal bovine serum. CD4 T-cells were isolated from HLACs by positive selection on CD4 microbeads (Miltenyi) and cultured overnight in 96-well U-bottomed plates (1×10^6 cells/well) as described above, and AZT was added to the indicated cell samples. Next day, the rest of the drugs were added to the indicated cell samples at concentrations as described above. Cells were chilled on ice for 15 min and DNAse-treated (Ambion, 60 U/ml, 1 hour, 37° C.) NL4-3 or Δvif NL4-3 virions (200 ng/well) were added. After a 1 hour incubation with virions on ice, cells were spinoculated at 1200 g for 2 hours at 4° C., incubated at 37° C. for 2 hours, washed three times with cold PBS, and resuspended in fresh RPMI with the indicated drugs. Eight or 16 hours after spinoculation, cell pellets were frozen at −80° C. Total DNA was purified from each cell pellet with a DNAse kit (Qiagen). Primer and probe sequences used to detect reverse transcription products are provided herein. QPCR reactions were performed in triplicates in TaqMan universal PCR master mix using each primer at 3.75 μM and probe at 2.5 μM. After 15 minutes at 95° C., reactions underwent 50 cycles of 15 sec at 95° C. followed by 1 min at 60° C. in an ABI Prism 7900HT (Applied Biosystems).
Next the status of HIV-1 reverse transcription in tonsillar CD4 T-cells after infection was examined. […] Taqman-based quantitative real-time PCR (QPCR) was used to quantify the synthesis of reverse transcription products in isolated CD4 T-cells from HLAC 16 hours after infection with NL4-3. Specific QPCR primers and probes were designed (Table 1) to monitor sequential steps in reverse transcription including generation of strong-stop DNA, first template exchange (Nef), and DNA strand elongation (Env) (FIG. 10A)

ISRE-GFP H35 cells = assay: ISRE-GFP H35 reporter cells; format: cell-based, rat; conditions: 1 μg transfected
Method: Hepatocyte-derived reporter ISRE-GFP H35 cells were maintained as previously described (King et al., 2007, Lab Chip 7:77-85; Patel et al., 2009, Proc Natl Acad Sci USA 106:12867-12872). For microscopic imaging, ISRE-GFP reporter H35 cells were cultured on 35 mm glass bottom culture dishes (MatTeck) and were treated with AZT (5 μM), Efavirenz (100 nM), or Raltegravir (30 μM) 12 hours before infection. Cells were then infected with 2 μg/ml of replication competent VSV-G pseudotyped NL4-3. After 48 hours incubation at 37° C., cells were fixed in 2% paraformaldehyde at 25° C. for 1 hour, washed with PBS and stained with 10 μg/ml Hoechst 33342 (Invitrogen) and 1 μg/ml 7-AAD (eBioscience) for 15 min at 25° C. Cells were washed 3 times with PBS and were analyzed with an Axio observer Z1 microscope (Zeiss) equipped with an EC Plan NEOFLUAR 10×/0.3 PHM27 objective, filter sets 38HE, 45, and 49, and an Axiocam MRM REV 3.

With `CC(C)c1cc(Cl)cc(C(C)C)c1NC(=O)NS(=O)(=O)c1cccc(C(C)O)c1` (centres unmarked) [CP-412,245] as the compound, how does the “post-translational processing and secretion of IL-1β” value (human monocytes) read?
Its value is “inhibited the post-translational processing and secretion of IL-1β”.

With `CC(C)c1cc(Cl)cc(C(C)C)c1NC(=O)NS(=O)(=O)c1cccc(C(C)(C)O)c1` [CP-424,174] as the compound, how does the “post-translational processing and secretion of IL-1β” value (human monocytes) read?
The value was “inhibited the post-translational processing and secretion of IL-1β”.

Which “syncytia formation / cell-cell fusion” value [1] does the source give for `CC(C)(C)NC(=O)[C@@H]1CN(Cc2cccnc2)CCN1C[C@@H](O)C[C@@H](Cc1ccccc1)C(=O)N[C@H]1c2ccccc2C[C@H]1O` [Indinavir] here?
The value was “do not block syncytia formation”.

And the “indirect killing (loss) of resting CFSE-labeled CD4 T-cells” value (from here on “indirect killing (loss)”) (CFSE-labeled CD4 T-cells)?
Its value is “inhibit indirect killing”.

For `CC(C)(C)NC(=O)[C@@H]1C[C@@H]2CCCC[C@@H]2CN1C[C@@H](O)[C@H](Cc1ccccc1)NC(=O)[C@H](CC(N)=O)NC(=O)c1ccc2ccccc2n1` [Saquinavir], which “syncytia formation / cell-cell fusion” value [1] is on record?
Its value is “do not block syncytia formation”.

What about the “indirect killing (loss)” value (CFSE-labeled CD4 T-cells) of the same compound?
Its value is “inhibit indirect killing”.

For `Cc1ccc(-c2ccc3c(c2)C=C(C(=O)Nc2ccc(C[N+](C)(C)C4CCOCC4)cc2)CCC3)cc1.[Cl-]` [TAK779], which “indirect killing of CFSE-labeled CD4 T-cells” value (CFSE-labeled CD4 T-cells; WEAU 16-8 (R5/X4)-infected effector cells) is on record?
Its value is “had no effect”.

For `CC(NC(=O)[C@H](Cc1ccccc1)NC(=O)OCc1ccccc1)C(=O)CF` (some centres unmarked) [Z-FA-FMK], which “death of abortively infected CD4 T-cells with caspase inhibitors” value (CFSE-labeled CD4 T-cells; 20 μM caspase inhibitor, AZT 5 μM) is on record?
The value was “persisted”.

Which “nigericin-induced IL-1β release after pre-treatment with caspase inhibitor” value (IL-1β) does the source give for `COC(=O)C[C@H](NC(=O)[C@H](C)NC(=O)[C@@H](NC(=O)[C@H](Cc1ccc(O)cc1)NC(=O)OCc1ccccc1)C(C)C)C(=O)CF` [Z-YVAD] here?
Its value is “blocked”.

For `Cc1ccnc2c1NC(=O)c1cccnc1N2C1CC1` [nevirapine], which “indirect killing (loss)” value (CFSE-labeled CD4 T-cells) is on record?
Its value is “blocked indirect killing of resting CD4 T-cells as efficiently as AMD3100”.

Which “loss of CFSE-labeled spleen CD4 T-cells” value [2] does the source give for `Cc1nnc(C(=O)NC(C)(C)c2nc(C(=O)NCc3ccc(F)cc3)c(O)c(=O)n2C)o1` [raltegravir] here?
The value was “did not prevent CD4 T-cell killing”.

What about the “reverse transcription products corresponding to strong-stop DNA” value [3] of the same compound?
Its value is “similar”.

And the “indirect killing (loss)” value (CFSE-labeled CD4 T-cells)?
Its value is “did not prevent abortive infection killing”.

Which “ISRE-GFP reporter activation by transfected nucleic acid” value (ISRE-GFP H35 cells) does the source give for poly(I:C) here?
The value was “elicited a comparable ISRE-GFP response”.
